How the values were obtained:
Type in all cases: in vivo
Hybrid corn [1] = assay: Example 1: potted hybrid corn, newest nodal roots after GA3 foliar spray
Excerpt: Hybrid corn seed was planted 3.8 centimeters (cm) deep on three separate dates in Miracle-Gro Potting Mix (Miracle-Grois a registered trademark owned by OMS Investments, Inc., Miracle-Gro Potting Mix is widely available at retail home improvement stores) in 2.5 gallon pots. The pots were filled with 0.007 cubic meters of potting mix. The seeds/plants were watered as needed. The second planting was 10 days after the first planting and the third planting was nine days after the second planting. The plants were treated with 0, 8.4 g ai/hectare, or 16.8 g ai/hectare of GA3 as formulated in RyzUp SmartGrass° (available from Valent BioSciences Corp.) using a TeeJet® 8002 VS spray tip on a manual sprayer set at 15 gallons per acre. Distilled water was used and non-ionic surfactant (0.25% v/v). The treatments were applied on the same day which was 28 days after the first planting (corn was at V6 stage), 18 days after the second planting (corn was at V3 or V4 stages), and 9 days after the third planting (corn was at V1 stage). Crop Heat Units are a way of calculating growth and are calculated on a daily basis, using the maximum (Tmax) and minimum (Tmin) daily air temperatures, measured from midnight to midnight, in degrees Celsius. The Crop Heat Unit (CHU) system uses the following equation which allows growers to more accurately predict the growth of crops compared to using calendar days: Tmax+Tmin÷2−Tbase, wherein Tbase is the base temperature for the crop. During this study, there were a few days following the treatments with temperatures exceeding 24 degrees Celsius and the nights dipped below 10 degrees Celsius. The week immediately following treatment, there was one day above 24 degrees Celsius, each night dipped below 10 degrees Celsius. […] The growth rate of corn also declines when temperatures are above 30 degrees Celsius. In this study, there was an average of 10 CHUs per day following treatment and a total of 83CHUs. The corn was harvested at 1, 2, and 3 weeks after treatment. The plants were washed and roots were separated from shoots.

Hybrid corn [2] = assay: Example 3: field study, root count of hybrid corn; details: 2.75 g ai/hectare at V4
Method: A field study was conducted in order to determine the effects of GA3 on root development. Hybrid corn seeds were planted and were treated when the corn was at the V4 stage of development sixteen days after planting. The treatments were 0 or 2.75g ai/hectare of GA3 as formulated in RyzUp SmartGrass® using a TeeJet® 8002 VS spray tips with a backpack sprayer set at 15 gallons per acre. Distilled water was used and non-ionic surfactant (0.25% v/v). The plants were then destructively harvested and their root count was evaluated.

Hybrid corn [3] = assay: Example 4: field study, number and dry weight of roots in two corn hybrids; parameters: Dry weight of nodes 1 to 3 / Dry weight of nodes 4 to 7 / Total dry weight: unit not given here
Method: Another field study was conducted in order to determine the effects of GA3 on root development. Two types of hybrid corn seeds were planted during the spring season. The plants were treated with 0 or 2.75g ai/hectare of GA3 as formulated in RyzUp SmartGrass® using a TeeJet° 8002 VS spray tip on a manual sprayer set at 15 gallons per acre. Distilled water was used and non-ionic surfactant (0.25% v/v). The treatments were applied when the corn was at the V4 stage of development. The plants were then destructively harvested 32 days after treatments and their number of roots, dry weight, and dry weight of nodal roots were evaluated.

[4] = Hybrid 1, 2.75 g ai/hectare at V4, 32 days after treatment
[5] = Hybrid 2, 2.75 g ai/hectare at V4, 32 days after treatment

In the case of `C=C1C[C@]23C[C@@]1(O)CC[C@H]2[C@@]12C=C[C@H](O)[C@@](C)(C(=O)O1)[C@H]2[C@@H]3C(=O)O` [GA3, gibberellic acid], the “# of newest nodal roots exposed/6 plants” value (Hybrid corn [1]; 8.4 g ai/ha GA3) is reported as 29, the “# of newest nodal roots exposed/plant” value (Hybrid corn [1]; 8.4 g ai/ha GA3) is reported as 4.8 and the “# of newest nodal roots exposed/plant with newest nodal roots present” value (Hybrid corn [1]; 8.4 g ai/ha GA3) is reported as 5.8. The “cm of newest nodal roots exposed/plant” value (Hybrid corn [1]; 8.4 g ai/ha GA3) was 4.2 cm, the “cm of newest nodal roots exposed/plant with newest nodal roots” value (Hybrid corn [1]; 8.4 g ai/ha GA3) was 5.0 cm and the “% of plants with newest nodal roots exposed” value (Hybrid corn [1]; 8.4 g ai/ha GA3, foliar spray) was 83%. The “# of newest nodal roots exposed/6 plants” value (Hybrid corn [1]; 16.8 g ai/ha GA3) was 33, the “# of newest nodal roots exposed/plant” value (Hybrid corn [1]; 16.8 g ai/ha GA3) was 5.5 and the “# of newest nodal roots exposed/plant with newest nodal roots present” value (Hybrid corn [1]; 16.8 g ai/ha GA3) was 5.5. For the same compound, the “cm of newest nodal roots exposed/plant” value (Hybrid corn [1]; 16.8 g ai/ha GA3) was 5.3 cm, the “cm of newest nodal roots exposed/plant with newest nodal roots” value (Hybrid corn [1]; 16.8 g ai/ha GA3) was 5.3 cm and the “% of plants with newest nodal roots exposed” value (Hybrid corn [1]; 16.8 g ai/ha GA3, foliar spray) was 100%. For the same compound, the “root count, Treated Compared to Untreated % of Control” value (Hybrid corn [2]; 1 day before treatment (baseline)) was 100.2 % of Control, the “root count, Treated Compared to Untreated % of Control” value (Hybrid corn [2]; 4 days after treatment) was 105.6 % of Control and the “root count, Treated Compared to Untreated % of Control” value (Hybrid corn [2]; 7 days after treatment) was 105.5 % of Control. For the same compound, the “root count, Treated Compared to Untreated % of Control” value (Hybrid corn [2]; 13 days after treatment) was 107.8 % of Control, the “Dry weight of nodes 1 to 3” value (Hybrid corn [3]; [4]) was 2.5 and the “Dry weight of nodes 4 to 7” value (Hybrid corn [3]; [4]) was 14.4. The Total dry weight (Hybrid corn [3]; [4]) was 16.9, the Total roots (Hybrid corn [3]; [4]) was 53.2 and the “Dry weight of nodes 1 to 3” value (Hybrid corn [3]; [5]) was 1.7. For the same compound, the “Dry weight of nodes 4 to 7” value (Hybrid corn [3]; [5]) was 10.1, the Total dry weight (Hybrid corn [3]; [5]) was 11.8 and the Total roots (Hybrid corn [3]; [5]) was 39.

From patent publication US20160050920A1, “METHODS TO IMPROVE NODAL ROOTS” (Valent BioSciences Corporation, priority 2014, published 2016)
